Assay results as given in paper PMC8550792, “Evolution of kinase polypharmacology across HSP90 drug discovery” (Cell Chemical Biology, 2021).

Key:
Assay in all cases: biochemical
Assay type in all cases: biochemical
382 unique human kinases [1] = molecular target: T1, 382 unique human kinases (Homo sapiens, UniProt O96013); details: PAK4, compound at 10 uM, duplicate values; for remaining activity at 10 µM: read-out: % Enzyme Activity (relative to DMSO controls)
T1 construct: purchased Reaction Biology (HotSpot contract assay)

382 unique human kinases [2] = molecular target: T2, 382 unique human kinases (Homo sapiens, UniProt P00533, D761Y); details: kinase EGFR (D761Y), compound 10 uM; for remaining activity at 10 µM: read-out: % Enzyme Activity (relative to DMSO controls)
T2 construct: purchased Reaction Biology (HotSpot contract assay)

382 unique human kinases [3] = molecular target: T3, 382 unique human kinases (Homo sapiens, UniProt P06213); details: kinase IR, compound 10 uM; for remaining activity at 10 µM: read-out: % Enzyme Activity (relative to DMSO controls)
T3 construct: purchased Reaction Biology (HotSpot contract assay)

382 unique human kinases [4] = molecular target: T4, 382 unique human kinases (Homo sapiens, UniProt P49760); details: CLK2, 10 uM; for remaining activity at 10 µM: read-out: % Enzyme Activity (relative to DMSO controls)
T4 construct: purchased Reaction Biology (HotSpot contract assay)

382 unique human kinases [5] = molecular target: T5, 382 unique human kinases (Homo sapiens, UniProt P53779); details: JNK3, compound at 10 uM, duplicate values; for remaining activity at 10 µM: read-out: % Enzyme Activity (relative to DMSO controls)
T5 construct: purchased Reaction Biology (HotSpot contract assay)

382 unique human kinases [6] = molecular target: T6, 382 unique human kinases (Homo sapiens, UniProt Q06187, P190K); details: BTK (P190K), 10 uM; for remaining activity at 10 µM: read-out: % Enzyme Activity (relative to DMSO controls)
T6 construct: purchased Reaction Biology (HotSpot contract assay)

382 unique human kinases [7] = molecular target: T7, 382 unique human kinases (Homo sapiens, UniProt Q13188); details: kinase MST2/STK3, compound 10 uM; for remaining activity at 10 µM: read-out: % Enzyme Activity (relative to DMSO controls)
T7 construct: purchased Reaction Biology (HotSpot contract assay)
T7 sequence (Q13188 1-491): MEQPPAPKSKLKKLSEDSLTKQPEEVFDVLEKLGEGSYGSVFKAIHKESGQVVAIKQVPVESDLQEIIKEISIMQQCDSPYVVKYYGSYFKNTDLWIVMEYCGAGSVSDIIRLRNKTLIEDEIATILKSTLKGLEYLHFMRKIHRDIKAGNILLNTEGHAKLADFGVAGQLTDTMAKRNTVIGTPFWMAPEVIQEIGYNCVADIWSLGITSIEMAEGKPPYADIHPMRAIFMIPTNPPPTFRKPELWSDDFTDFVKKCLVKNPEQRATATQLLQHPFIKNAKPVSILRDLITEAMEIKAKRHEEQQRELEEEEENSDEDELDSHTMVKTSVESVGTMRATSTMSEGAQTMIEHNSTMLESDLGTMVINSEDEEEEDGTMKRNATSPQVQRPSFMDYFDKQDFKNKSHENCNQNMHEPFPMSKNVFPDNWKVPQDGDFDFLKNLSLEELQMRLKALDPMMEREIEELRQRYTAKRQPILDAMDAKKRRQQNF

382 unique human kinases [8] = molecular target: T8, 382 unique human kinases (Homo sapiens, UniProt Q6P2M8); details: kinase CAMK1b, compound 10 uM; for remaining activity at 10 µM: read-out: % Enzyme Activity (relative to DMSO controls)
T8 construct: purchased Reaction Biology (HotSpot contract assay)

382 unique human kinases [9] = molecular target: T9, 382 unique human kinases (Homo sapiens, UniProt Q8NEV4); details: MYO3A, 10 uM; for remaining activity at 10 µM: read-out: % Enzyme Activity (relative to DMSO controls)
T9 construct: purchased Reaction Biology (HotSpot contract assay)

382 unique human kinases [10] = molecular target: 382 unique human kinases (Homo sapiens, UniProt Q9H1R3); details: kinase MLCK2/MYLK2, compound 10 uM; for remaining activity at 10 µM: read-out: % Enzyme Activity (relative to DMSO controls)
382 unique human kinases [11] = molecular target: T10, 382 unique human kinases (Homo sapiens, UniProt Q9UEW8); details: STK39/STLK3, 10 uM; for remaining activity at 10 µM: read-out: % Enzyme Activity (relative to DMSO controls)
T10 construct: purchased Reaction Biology (HotSpot contract assay)

382 unique human kinases [12] = molecular target: T11, 382 unique human kinases (Homo sapiens, UniProt O60674); details: JAK2, [ATP] 2.5 µM, compound 10 uM; for remaining activity at 10 µM: read-out: % Enzyme Activity (relative to DMSO controls)
T11 construct: purchased Reaction Biology (HotSpot contract assay)

382 unique human kinases [13] = molecular target: T12, 382 unique human kinases (Homo sapiens, UniProt P08581, D1228H); details: c-MET (D1228H), 10 uM; for remaining activity at 10 µM: read-out: % Enzyme Activity (relative to DMSO controls)
T12 construct: purchased Reaction Biology (HotSpot contract assay)

382 unique human kinases [14] = molecular target: T13, 382 unique human kinases (Homo sapiens, UniProt P41279); details: COT1/MAP3K8, 10 uM; for remaining activity at 10 µM: read-out: % Enzyme Activity (relative to DMSO controls)
T13 construct: purchased Reaction Biology (HotSpot contract assay)

382 unique human kinases [15] = molecular target: T14, 382 unique human kinases (Homo sapiens, UniProt P49761); details: CLK3, [ATP] 30 µM, compound 10 uM; for remaining activity at 10 µM: read-out: % Enzyme Activity (relative to DMSO controls)
T14 construct: purchased Reaction Biology (HotSpot contract assay)

382 unique human kinases [16] = molecular target: T15, 382 unique human kinases (Homo sapiens, UniProt P51451); details: BLK, [ATP] 10 µM
T15 construct: purchased Reaction Biology (HotSpot contract assay)

382 unique human kinases [17] = molecular target: T16, 382 unique human kinases (Homo sapiens, UniProt P54756); details: EPHA5, [ATP] 30 µM, compound 10 uM; for remaining activity at 10 µM: read-out: % Enzyme Activity (relative to DMSO controls)
T16 construct: purchased Reaction Biology (HotSpot contract assay)

382 unique human kinases [18] = molecular target: T17, 382 unique human kinases (Homo sapiens, UniProt Q15349); details: RSK3, 10 uM; for remaining activity at 10 µM: read-out: % Enzyme Activity (relative to DMSO controls)
T17 construct: purchased Reaction Biology (HotSpot contract assay)

382 unique human kinases [19] = molecular target: T18, 382 unique human kinases (Homo sapiens, UniProt Q86UE8); details: TLK2, 10 uM; for remaining activity at 10 µM: read-out: % Enzyme Activity (relative to DMSO controls)
T18 construct: purchased Reaction Biology (HotSpot contract assay)

382 unique human kinases [20] = molecular target: T19, 382 unique human kinases (Homo sapiens, UniProt Q8IY84); details: NIM1, 10 uM; for remaining activity at 10 µM: read-out: % Enzyme Activity (relative to DMSO controls)
T19 construct: purchased Reaction Biology (HotSpot contract assay)

382 unique human kinases [21] = molecular target: 382 unique human kinases (Homo sapiens, UniProt Q9Y463); details: DYRK1B, [ATP] 20 µM, compound 10 uM; for remaining activity at 10 µM: read-out: % Enzyme Activity (relative to DMSO controls)
[22] = compound 10 uM, read-out: % Enzyme Activity (relative to DMSO controls)

T1 sequence (O96013 whole entry): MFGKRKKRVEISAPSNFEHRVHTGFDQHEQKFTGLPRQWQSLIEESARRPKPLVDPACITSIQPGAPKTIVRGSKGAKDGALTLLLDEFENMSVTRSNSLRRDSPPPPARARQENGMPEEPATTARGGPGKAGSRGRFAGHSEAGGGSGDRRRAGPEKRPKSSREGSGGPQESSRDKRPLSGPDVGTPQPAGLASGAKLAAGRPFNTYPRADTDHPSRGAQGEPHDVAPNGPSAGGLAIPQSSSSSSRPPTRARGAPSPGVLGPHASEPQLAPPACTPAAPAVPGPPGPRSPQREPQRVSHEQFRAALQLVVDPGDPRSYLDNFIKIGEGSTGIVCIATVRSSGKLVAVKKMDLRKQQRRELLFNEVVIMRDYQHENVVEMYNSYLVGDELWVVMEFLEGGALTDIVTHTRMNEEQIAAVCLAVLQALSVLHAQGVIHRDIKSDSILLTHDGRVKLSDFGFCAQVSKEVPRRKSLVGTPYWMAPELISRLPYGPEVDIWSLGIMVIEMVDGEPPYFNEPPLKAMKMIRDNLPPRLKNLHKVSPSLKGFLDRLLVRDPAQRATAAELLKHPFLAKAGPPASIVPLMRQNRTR
T16 sequence (P54756 25-1037): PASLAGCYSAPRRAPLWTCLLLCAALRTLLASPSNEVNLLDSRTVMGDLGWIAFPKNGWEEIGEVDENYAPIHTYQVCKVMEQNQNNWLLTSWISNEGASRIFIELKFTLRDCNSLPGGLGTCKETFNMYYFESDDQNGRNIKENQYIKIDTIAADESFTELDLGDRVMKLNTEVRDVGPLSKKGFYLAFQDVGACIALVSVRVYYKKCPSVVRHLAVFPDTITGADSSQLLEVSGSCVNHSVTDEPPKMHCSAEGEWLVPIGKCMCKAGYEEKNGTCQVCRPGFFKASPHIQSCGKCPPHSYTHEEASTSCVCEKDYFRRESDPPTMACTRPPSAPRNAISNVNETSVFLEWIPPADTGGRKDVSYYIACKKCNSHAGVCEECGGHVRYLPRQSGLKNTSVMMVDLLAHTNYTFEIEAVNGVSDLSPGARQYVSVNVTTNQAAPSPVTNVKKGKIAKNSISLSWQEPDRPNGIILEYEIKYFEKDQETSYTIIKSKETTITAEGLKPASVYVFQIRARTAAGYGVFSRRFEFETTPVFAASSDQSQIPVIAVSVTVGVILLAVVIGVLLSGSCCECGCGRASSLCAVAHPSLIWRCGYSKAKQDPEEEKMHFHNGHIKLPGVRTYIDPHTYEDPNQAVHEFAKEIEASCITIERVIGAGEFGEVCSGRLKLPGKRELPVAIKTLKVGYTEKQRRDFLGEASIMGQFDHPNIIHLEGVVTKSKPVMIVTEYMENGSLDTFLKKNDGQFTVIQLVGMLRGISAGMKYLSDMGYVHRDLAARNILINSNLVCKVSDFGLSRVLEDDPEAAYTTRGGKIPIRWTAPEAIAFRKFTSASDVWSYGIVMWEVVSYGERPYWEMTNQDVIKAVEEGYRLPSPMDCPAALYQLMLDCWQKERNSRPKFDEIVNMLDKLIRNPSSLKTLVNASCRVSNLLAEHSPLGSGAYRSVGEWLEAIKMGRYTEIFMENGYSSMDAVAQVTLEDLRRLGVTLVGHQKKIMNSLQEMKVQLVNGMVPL
T6 sequence (Q06187 whole entry P190K): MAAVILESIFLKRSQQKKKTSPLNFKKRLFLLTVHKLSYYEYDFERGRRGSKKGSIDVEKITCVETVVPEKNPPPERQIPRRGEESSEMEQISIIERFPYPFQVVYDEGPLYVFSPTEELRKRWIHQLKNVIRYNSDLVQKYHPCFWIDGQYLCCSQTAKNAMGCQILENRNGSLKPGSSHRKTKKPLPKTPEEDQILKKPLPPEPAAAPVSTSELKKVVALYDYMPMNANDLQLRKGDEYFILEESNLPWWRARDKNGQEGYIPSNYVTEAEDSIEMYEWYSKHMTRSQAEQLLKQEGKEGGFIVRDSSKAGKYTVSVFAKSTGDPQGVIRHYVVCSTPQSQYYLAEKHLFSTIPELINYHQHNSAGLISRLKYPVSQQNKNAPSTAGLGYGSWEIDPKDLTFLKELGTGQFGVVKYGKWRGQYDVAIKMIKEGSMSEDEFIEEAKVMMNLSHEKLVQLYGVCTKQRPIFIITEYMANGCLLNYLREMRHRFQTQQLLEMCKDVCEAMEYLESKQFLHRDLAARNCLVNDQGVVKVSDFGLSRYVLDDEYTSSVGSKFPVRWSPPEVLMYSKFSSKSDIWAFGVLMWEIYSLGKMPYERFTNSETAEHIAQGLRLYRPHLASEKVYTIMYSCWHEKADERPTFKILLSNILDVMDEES
T11 sequence (O60674 whole entry): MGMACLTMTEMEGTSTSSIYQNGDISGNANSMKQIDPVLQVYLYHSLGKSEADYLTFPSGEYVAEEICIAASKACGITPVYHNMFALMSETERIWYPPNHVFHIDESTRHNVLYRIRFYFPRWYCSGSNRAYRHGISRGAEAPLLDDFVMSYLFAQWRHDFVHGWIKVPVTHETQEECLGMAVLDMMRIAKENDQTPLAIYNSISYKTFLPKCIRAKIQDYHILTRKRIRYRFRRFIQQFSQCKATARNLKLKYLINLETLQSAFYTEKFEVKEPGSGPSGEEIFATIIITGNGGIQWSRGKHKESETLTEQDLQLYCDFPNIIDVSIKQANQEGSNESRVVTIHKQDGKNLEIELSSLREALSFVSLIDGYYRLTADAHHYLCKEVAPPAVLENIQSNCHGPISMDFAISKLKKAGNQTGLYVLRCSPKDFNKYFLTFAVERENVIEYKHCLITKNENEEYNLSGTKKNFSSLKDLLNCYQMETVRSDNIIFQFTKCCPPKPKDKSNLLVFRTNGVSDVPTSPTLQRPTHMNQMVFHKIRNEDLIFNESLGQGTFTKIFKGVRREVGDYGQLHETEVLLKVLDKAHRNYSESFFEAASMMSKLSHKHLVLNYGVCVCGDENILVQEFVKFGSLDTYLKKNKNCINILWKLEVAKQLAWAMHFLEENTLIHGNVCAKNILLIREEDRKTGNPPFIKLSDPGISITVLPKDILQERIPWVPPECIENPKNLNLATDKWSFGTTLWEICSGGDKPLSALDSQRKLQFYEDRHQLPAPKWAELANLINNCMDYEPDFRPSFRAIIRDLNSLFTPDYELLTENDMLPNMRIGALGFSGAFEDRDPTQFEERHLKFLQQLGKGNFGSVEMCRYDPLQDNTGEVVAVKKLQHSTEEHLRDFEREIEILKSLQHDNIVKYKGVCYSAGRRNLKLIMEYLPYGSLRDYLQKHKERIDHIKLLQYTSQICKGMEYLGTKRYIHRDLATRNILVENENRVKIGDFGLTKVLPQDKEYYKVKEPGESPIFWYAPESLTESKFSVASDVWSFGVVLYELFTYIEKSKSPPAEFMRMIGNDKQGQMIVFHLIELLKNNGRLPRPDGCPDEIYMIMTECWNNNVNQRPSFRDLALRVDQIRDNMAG
T5 sequence (P53779 whole entry): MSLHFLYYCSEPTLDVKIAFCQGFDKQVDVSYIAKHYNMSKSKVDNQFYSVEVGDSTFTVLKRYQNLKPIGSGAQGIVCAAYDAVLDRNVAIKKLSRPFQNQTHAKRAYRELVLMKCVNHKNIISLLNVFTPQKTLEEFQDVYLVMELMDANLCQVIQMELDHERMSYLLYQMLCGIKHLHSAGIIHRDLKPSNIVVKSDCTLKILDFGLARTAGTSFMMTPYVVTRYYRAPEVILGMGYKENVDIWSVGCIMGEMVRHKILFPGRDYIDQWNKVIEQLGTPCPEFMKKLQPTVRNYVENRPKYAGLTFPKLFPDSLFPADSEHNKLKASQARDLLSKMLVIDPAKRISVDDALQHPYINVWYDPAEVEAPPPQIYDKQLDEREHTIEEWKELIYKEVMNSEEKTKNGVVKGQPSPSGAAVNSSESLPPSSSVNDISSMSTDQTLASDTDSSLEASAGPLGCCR
T18 sequence (Q86UE8 whole entry): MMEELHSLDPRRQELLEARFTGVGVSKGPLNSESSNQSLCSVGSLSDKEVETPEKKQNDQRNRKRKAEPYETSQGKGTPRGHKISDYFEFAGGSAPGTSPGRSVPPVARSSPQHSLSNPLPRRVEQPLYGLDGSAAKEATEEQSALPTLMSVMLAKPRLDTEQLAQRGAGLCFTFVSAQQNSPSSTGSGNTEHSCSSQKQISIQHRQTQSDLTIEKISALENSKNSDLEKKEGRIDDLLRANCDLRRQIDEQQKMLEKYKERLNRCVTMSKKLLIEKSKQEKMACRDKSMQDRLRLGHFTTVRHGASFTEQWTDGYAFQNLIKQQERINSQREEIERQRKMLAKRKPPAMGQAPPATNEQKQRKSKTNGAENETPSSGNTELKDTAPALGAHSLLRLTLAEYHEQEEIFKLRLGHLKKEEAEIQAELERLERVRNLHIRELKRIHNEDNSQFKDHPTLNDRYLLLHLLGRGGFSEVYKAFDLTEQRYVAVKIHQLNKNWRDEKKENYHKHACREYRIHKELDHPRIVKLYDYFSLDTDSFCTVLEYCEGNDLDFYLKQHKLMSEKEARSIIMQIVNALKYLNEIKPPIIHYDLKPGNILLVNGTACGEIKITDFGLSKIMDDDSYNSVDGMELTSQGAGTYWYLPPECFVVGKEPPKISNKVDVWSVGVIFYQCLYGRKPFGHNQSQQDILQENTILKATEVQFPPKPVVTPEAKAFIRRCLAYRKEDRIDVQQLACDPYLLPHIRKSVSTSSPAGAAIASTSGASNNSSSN
T19 sequence (Q8IY84 whole entry): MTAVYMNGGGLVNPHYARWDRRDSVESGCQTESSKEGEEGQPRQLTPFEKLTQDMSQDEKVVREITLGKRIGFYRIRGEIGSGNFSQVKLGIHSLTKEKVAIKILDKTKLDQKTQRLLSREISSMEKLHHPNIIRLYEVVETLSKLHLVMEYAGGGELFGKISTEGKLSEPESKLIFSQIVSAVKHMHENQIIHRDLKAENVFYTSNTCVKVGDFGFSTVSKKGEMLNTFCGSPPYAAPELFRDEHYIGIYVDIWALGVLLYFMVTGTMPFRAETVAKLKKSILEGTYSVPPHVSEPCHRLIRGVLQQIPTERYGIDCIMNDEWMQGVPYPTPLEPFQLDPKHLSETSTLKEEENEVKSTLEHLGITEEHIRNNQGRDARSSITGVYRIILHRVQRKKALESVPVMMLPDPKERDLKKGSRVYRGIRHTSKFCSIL

SMILES	remaining activity at 10 µM (382 unique human kinases [1])	remaining activity at 10 µM (382 unique human kinases [2])	remaining activity at 10 µM (382 unique human kinases [3])	remaining activity at 10 µM (382 unique human kinases [4])	remaining activity at 10 µM (382 unique human kinases [5])	remaining activity at 10 µM (382 unique human kinases [6])	remaining activity at 10 µM (382 unique human kinases [7])	remaining activity at 10 µM (382 unique human kinases [8])	remaining activity at 10 µM (382 unique human kinases [9])	remaining activity at 10 µM (382 unique human kinases [10])	remaining activity at 10 µM (382 unique human kinases [11])	remaining activity at 10 µM (382 unique human kinases [12])	remaining activity at 10 µM (382 unique human kinases [13])	remaining activity at 10 µM (382 unique human kinases [14])	remaining activity at 10 µM (382 unique human kinases [15])	remaining activity at 10 µM (382 unique human kinases [16]; [22])	remaining activity at 10 µM (382 unique human kinases [17])	remaining activity at 10 µM (382 unique human kinases [18])	remaining activity at 10 µM (382 unique human kinases [19])	remaining activity at 10 µM (382 unique human kinases [20])	other results
CC(C)c1cc(-c2n[nH]c(=O)n2-c2ccc3c(ccn3C)c2)c(O)cc1O [Ganetespib (STA9090)]	129%	90%	87%	67.1%	118%	62.1%	78.8%	83.4%	97.3%	80.2%	70.5%	–	–	–	–	–	–	–	–	–	–
CCNC(=O)c1noc(-c2cc(C(C)C)c(O)cc2O)c1-c1ccc(CN2CCOCC2)cc1 [Luminespib]	–	–	–	–	–	–	–	–	–	–	–	99.6%	92.4%	95.4%	46.6%	38.1%	79.4%	95.2%	98.7%	99.8%	% Enzyme Activity (relative to DMSO controls) (382 unique human kinases [12]): 97.09%; % Enzyme Activity (relative to DMSO controls) (382 unique human kinases [13]): 91.15%; % Enzyme Activity (relative to DMSO controls) (382 unique human kinases [14]): 93.56%; % Enzyme Activity (relative to DMSO controls) (382 unique human kinases [15]): 45.99%; % Enzyme Activity (relative to DMSO controls) (382 unique human kinases [16]; compound 10 uM): 36.97%; % Enzyme Activity (relative to DMSO controls) (382 unique human kinases [17]): 78.40%; % Enzyme Activity (relative to DMSO controls) (382 unique human kinases [18]): 94.51%; % Enzyme Activity (relative to DMSO controls) (382 unique human kinases [19]): 97.34%; % Enzyme Activity (relative to DMSO controls) (382 unique human kinases [20]): 99.73%; % Enzyme Activity (relative to DMSO controls) (382 unique human kinases [21]): 97.25%; remaining activity at 10 µM (382 unique human kinases [21]): 98.9%
CCNC(=O)c1noc(-c2cc(C(C)C)c(O)cc2O)c1-c1ccc(CN2CCOCC2)cc1 [Luminespib (AUY-922)]	119%	98.1%	96.8%	80.2%	107%	61.9%	93.3%	94.9%	76.4%	95.1%	93.8%	–	–	–	–	–	–	–	–	–	% Enzyme Activity (relative to DMSO controls) (382 unique human kinases [1]): 118.57%; % Enzyme Activity (relative to DMSO controls) (382 unique human kinases [2]): 97.70%; % Enzyme Activity (relative to DMSO controls) (382 unique human kinases [3]): 96.77%; % Enzyme Activity (relative to DMSO controls) (382 unique human kinases [4]): 80.06%; % Enzyme Activity (relative to DMSO controls) (382 unique human kinases [5]): 106.79%; % Enzyme Activity (relative to DMSO controls) (382 unique human kinases [6]): 61.43%; % Enzyme Activity (relative to DMSO controls) (382 unique human kinases [7]): 89.89%; % Enzyme Activity (relative to DMSO controls) (382 unique human kinases [8]): 91.57%; % Enzyme Activity (relative to DMSO controls) (382 unique human kinases [9]): 74.72%; % Enzyme Activity (relative to DMSO controls) (382 unique human kinases [10]): 91.17%; % Enzyme Activity (relative to DMSO controls) (382 unique human kinases [11]): 90.56%
CC(C)c1cc(-c2n[nH]c(=O)n2-c2ccc3c(ccn3C)c2)c(O)cc1O [Ganetespib]	–	–	–	–	–	–	–	–	–	–	–	57.1%	98.6%	116%	39%	7.74%	55.6%	119%	91.9%	90.5%	remaining activity at 1 µM (382 unique human kinases [16]; compound 1 uM, read-out: % Enzyme Activity (relative to DMSO controls)): 38.4%; remaining activity at 10 µM (382 unique human kinases [21]): 45%
